What was measured:
MLK1(h) = MLK1(h) (Homo sapiens (Human), UniProt P80192); experiment: Kinase Profiler 10 μM panel
Method: (§1) In vitro kinase assays were conducted using Kinase Profiler services provided by Eurofins. The experimental method was as follows: the small molecule compound to be tested (0.001-10 μM), the protein kinase to be tested were incubated with a buffer containing substrate, 10 mM magnesium acetate, and [γ-^33P-ATP], the reaction was started by adding Mg\TPmix, after incubation for a period of time at room temperature, a 3% phosphate solution was added to the buffer to stop the reaction. Subsequently, 10 μL of the reaction mixture was quantitatively pipetted onto P30 filter paper, which was washed three times with 75 mM phosphate solution and then once with methanol. The P30 filter paper was air-dried and scintillation fluid was added for scintillation counting.

PKCζ(h) = PKCζ(h) (Homo sapiens (Human), UniProt Q05513); experiment: Kinase Profiler 10 μM panel
Method: as §1

CK2α1(h) = CK2α1(h) (Homo sapiens (Human), UniProt P68400); experiment: Kinase Profiler 10 μM panel
Method: as §1

[1] = molecular target: PI3 Kinase (p110d/p85a)(m) (Mus musculus (Mouse), UniProt O35904); experiment: Kinase Profiler 10 μM panel
Method: as §1

MAP4K3(h) = MAP4K3(h) (Homo sapiens (Human), UniProt Q8IVH8); experiment: Kinase Profiler 10 μM panel
Method: as §1

MAPK2(m) = MAPK2(m) (Mus musculus (Mouse), UniProt P63085); experiment: Kinase Profiler 10 μM panel
Method: as §1

PKCη(h) = PKCη(h) (Homo sapiens (Human), UniProt P24723); experiment: Kinase Profiler 10 μM panel
Method: as §1

PASK(h) = PASK(h) (Homo sapiens (Human), UniProt Q96RG2); experiment: Kinase Profiler 10 μM panel
Method: as §1

CSK(h) = CSK(h) (Homo sapiens (Human), UniProt P41240); experiment: Kinase Profiler 10 μM panel
Method: as §1

CaMKIIβ(h) = CaMKIIβ(h) (Homo sapiens (Human), UniProt Q13554); experiment: Kinase Profiler 10 μM panel
Method: as §1

[2] = molecular target: PI3 Kinase (p110a(E545K)/p85a)(m) (Mus musculus (Mouse), UniProt P42337, E545K); experiment: Kinase Profiler 10 μM panel
Method: as §1

CaMKI(h) = CaMKI(h) (Homo sapiens (Human), UniProt Q14012); experiment: Kinase Profiler 10 μM panel
Method: as §1

WNK4(h) = WNK4(h) (Homo sapiens (Human), UniProt Q96J92); experiment: Kinase Profiler 10 μM panel
Method: as §1

Plk3(h) = Plk3(h) (Homo sapiens (Human), UniProt Q9H4B4); experiment: Kinase Profiler 10 μM panel
Method: as §1

[3] = In vivo pharmacokinetic study in rats; conditions: rat, plasma, oral, 10 mg/kg
Method: Blood was collected from rats at different times after administration at the following time points: 0.083 h, 0.25 h, 0.5 h, 1 h, 2 h, 4 h, 8 h, and 24 h after intravenous administration; 0.25 h, 0.5 h, 1 h, 2 h, 4 h, 6 h, 8 h, and 24 h after oral administration. About 0.20 mL of blood was collected via jugular vein or other suitable means for each sample at the corresponding time, with heparin sodium for anticoagulation; the blood sample was placed on ice after collection and centrifuged within 1 h to separate the plasma (centrifugation conditions: centrifugal force 6800 g, 6 min, 2-8° C.). The collected plasma samples were stored in a refrigerator at −80° C. before analysis, and the remaining plasma samples continued to be temporarily stored in the refrigerator at −80° C. for one month after analysis.
Pharmacokinetic parameters such as AUC (0-t), T1/2, Cmax, Tmax, and MRT were calculated using WinNonlin based on plasma concentration data at different time points. The plasma drug concentration-time curve was plotted with BLQ recorded as 0. For the calculation of pharmacokinetic parameters, the concentration before administration was calculated as 0; BLQ before Cmax (including “No peak”) was calculated as 0; no BLQ (including “No peak”) appeared after Cmax participated in the calculation. The experiment was completed by Shanghai Medicilon Inc.

MRCKα(h) = MRCKα(h) (Homo sapiens (Human), UniProt Q5VT25); experiment: Kinase Profiler 10 μM panel
Method: as §1

ICK(h) = ICK(h) (Homo sapiens (Human), UniProt Q9UPZ9); experiment: Kinase Profiler 10 μM panel
Method: as §1

SAPK2b(h) = SAPK2b(h) (Homo sapiens (Human), UniProt Q15759); experiment: Kinase Profiler 10 μM panel
Method: as §1

SIK3(h) = SIK3(h) (Homo sapiens (Human), UniProt Q9Y2K2); experiment: Kinase Profiler 10 μM panel
Method: as §1

MEKK3(h) = MEKK3(h) (Homo sapiens (Human), UniProt Q99759); experiment: Kinase Profiler 10 μM panel
Method: as §1

TrkC(h) = TrkC(h) (Homo sapiens (Human), UniProt Q16288); experiment: Kinase Profiler 10 μM panel
Method: as §1

PKBγ(h) = PKBγ(h) (Homo sapiens (Human), UniProt Q9Y243); experiment: Kinase Profiler 10 μM panel
Method: as §1

PAK5(h) = PAK5(h) (Homo sapiens (Human), UniProt Q9P286); experiment: Kinase Profiler 10 μM panel
Method: as §1

WNK3(h) = WNK3(h) (Homo sapiens (Human), UniProt Q9BYP7); experiment: Kinase Profiler 10 μM panel
Method: as §1

ALK1(h) = ALK1(h) (Homo sapiens (Human), UniProt P37023); experiment: Kinase Profiler 10 μM panel
Method: as §1

Rsk2(h) = Rsk2(h) (Homo sapiens (Human), UniProt P51812); experiment: Kinase Profiler 10 μM panel
Method: as §1

LRRK2(h) = LRRK2(h) (Homo sapiens (Human), UniProt Q5S007); experiment: Kinase Profiler 10 μM panel
Method: as §1

PI3 Kinase (p110a(E545K)/p85a)(m), sequence (P42337 whole entry E545K): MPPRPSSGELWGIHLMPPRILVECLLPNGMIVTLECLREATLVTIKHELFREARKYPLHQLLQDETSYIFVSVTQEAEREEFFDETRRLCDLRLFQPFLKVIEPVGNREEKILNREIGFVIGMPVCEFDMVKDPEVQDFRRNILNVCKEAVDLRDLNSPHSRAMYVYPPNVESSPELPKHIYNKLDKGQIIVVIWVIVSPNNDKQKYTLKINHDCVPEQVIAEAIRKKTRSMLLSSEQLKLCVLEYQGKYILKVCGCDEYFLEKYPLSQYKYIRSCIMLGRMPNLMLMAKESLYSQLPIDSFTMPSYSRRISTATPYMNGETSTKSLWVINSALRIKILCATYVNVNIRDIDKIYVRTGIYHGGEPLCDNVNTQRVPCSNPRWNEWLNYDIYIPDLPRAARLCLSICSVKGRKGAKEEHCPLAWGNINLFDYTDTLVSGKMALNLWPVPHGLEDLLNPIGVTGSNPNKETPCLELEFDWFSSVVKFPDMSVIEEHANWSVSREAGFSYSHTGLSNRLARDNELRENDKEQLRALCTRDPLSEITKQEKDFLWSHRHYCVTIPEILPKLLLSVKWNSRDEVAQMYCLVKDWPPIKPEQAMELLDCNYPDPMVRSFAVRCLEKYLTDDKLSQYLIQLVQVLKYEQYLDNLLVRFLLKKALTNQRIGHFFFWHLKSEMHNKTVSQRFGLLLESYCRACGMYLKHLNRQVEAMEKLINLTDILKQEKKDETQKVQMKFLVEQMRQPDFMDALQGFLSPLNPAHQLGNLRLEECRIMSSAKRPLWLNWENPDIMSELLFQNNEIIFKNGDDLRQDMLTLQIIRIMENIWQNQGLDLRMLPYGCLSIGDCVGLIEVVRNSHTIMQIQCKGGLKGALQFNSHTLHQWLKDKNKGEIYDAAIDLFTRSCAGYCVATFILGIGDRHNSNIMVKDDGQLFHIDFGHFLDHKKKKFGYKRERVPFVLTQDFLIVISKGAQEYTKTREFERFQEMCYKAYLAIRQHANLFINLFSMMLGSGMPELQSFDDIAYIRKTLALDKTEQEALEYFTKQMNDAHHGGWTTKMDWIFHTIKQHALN
PI3 Kinase (p110a(E545K)/p85a)(m), sequence (P26450 whole entry partner): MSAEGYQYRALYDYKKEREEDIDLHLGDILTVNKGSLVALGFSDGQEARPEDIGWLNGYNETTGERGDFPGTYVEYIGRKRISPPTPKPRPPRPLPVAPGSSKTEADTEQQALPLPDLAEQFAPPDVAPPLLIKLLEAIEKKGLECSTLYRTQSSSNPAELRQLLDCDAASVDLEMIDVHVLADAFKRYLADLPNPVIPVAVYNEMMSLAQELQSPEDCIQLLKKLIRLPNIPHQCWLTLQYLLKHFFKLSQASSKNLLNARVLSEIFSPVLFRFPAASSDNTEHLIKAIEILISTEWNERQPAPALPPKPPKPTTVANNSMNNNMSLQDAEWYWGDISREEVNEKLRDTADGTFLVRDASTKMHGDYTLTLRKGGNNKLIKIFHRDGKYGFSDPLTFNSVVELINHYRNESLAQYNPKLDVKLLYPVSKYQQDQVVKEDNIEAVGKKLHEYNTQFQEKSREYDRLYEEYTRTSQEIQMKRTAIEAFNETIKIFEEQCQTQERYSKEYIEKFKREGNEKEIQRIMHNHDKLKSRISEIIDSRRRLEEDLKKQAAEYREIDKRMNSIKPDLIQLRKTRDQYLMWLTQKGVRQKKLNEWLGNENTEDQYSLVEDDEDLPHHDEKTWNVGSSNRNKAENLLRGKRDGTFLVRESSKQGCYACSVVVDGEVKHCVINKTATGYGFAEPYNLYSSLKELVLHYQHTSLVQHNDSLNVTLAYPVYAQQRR
MAP4K3(h), sequence (Q8IVH8 whole entry): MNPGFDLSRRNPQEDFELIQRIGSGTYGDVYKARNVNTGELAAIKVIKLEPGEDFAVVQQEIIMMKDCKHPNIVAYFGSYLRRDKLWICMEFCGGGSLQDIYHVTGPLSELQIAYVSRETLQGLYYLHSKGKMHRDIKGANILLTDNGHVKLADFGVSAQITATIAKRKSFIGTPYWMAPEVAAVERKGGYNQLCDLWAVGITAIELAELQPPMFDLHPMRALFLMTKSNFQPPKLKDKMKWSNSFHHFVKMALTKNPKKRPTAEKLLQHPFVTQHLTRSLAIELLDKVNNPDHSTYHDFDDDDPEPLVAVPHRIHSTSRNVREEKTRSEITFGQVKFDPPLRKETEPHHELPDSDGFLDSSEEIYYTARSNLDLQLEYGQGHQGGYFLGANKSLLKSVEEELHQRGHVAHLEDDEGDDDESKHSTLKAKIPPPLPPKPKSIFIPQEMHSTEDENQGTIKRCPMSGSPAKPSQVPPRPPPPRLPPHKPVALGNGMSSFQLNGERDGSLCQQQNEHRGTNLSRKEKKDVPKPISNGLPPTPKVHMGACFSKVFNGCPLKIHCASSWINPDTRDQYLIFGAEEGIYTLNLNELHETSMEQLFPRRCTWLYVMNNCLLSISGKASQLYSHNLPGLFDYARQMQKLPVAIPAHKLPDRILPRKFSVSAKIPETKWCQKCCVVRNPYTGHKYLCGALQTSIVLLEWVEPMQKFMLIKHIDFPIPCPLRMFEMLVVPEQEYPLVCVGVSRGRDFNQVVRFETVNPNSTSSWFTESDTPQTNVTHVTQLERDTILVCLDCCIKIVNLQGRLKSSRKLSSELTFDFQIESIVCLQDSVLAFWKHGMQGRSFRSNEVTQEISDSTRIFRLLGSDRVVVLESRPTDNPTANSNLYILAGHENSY
PKCζ(h), sequence (Q05513 whole entry): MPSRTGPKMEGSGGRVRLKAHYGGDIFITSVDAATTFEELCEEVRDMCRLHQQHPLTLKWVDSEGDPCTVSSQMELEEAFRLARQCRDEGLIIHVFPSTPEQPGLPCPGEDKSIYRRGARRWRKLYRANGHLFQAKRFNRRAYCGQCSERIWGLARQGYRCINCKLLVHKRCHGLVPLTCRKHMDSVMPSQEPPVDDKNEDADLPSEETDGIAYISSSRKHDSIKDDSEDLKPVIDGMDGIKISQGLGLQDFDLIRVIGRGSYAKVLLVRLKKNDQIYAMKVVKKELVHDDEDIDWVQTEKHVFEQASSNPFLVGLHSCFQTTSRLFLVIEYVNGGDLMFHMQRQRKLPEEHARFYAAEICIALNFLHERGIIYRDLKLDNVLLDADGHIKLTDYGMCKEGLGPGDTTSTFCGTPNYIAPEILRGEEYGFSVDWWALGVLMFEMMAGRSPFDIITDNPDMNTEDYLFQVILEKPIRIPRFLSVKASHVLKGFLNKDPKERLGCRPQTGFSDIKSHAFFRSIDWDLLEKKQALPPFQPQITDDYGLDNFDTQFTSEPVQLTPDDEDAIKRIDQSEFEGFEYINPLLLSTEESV
SIK3(h), sequence (Q9Y2K2 whole entry): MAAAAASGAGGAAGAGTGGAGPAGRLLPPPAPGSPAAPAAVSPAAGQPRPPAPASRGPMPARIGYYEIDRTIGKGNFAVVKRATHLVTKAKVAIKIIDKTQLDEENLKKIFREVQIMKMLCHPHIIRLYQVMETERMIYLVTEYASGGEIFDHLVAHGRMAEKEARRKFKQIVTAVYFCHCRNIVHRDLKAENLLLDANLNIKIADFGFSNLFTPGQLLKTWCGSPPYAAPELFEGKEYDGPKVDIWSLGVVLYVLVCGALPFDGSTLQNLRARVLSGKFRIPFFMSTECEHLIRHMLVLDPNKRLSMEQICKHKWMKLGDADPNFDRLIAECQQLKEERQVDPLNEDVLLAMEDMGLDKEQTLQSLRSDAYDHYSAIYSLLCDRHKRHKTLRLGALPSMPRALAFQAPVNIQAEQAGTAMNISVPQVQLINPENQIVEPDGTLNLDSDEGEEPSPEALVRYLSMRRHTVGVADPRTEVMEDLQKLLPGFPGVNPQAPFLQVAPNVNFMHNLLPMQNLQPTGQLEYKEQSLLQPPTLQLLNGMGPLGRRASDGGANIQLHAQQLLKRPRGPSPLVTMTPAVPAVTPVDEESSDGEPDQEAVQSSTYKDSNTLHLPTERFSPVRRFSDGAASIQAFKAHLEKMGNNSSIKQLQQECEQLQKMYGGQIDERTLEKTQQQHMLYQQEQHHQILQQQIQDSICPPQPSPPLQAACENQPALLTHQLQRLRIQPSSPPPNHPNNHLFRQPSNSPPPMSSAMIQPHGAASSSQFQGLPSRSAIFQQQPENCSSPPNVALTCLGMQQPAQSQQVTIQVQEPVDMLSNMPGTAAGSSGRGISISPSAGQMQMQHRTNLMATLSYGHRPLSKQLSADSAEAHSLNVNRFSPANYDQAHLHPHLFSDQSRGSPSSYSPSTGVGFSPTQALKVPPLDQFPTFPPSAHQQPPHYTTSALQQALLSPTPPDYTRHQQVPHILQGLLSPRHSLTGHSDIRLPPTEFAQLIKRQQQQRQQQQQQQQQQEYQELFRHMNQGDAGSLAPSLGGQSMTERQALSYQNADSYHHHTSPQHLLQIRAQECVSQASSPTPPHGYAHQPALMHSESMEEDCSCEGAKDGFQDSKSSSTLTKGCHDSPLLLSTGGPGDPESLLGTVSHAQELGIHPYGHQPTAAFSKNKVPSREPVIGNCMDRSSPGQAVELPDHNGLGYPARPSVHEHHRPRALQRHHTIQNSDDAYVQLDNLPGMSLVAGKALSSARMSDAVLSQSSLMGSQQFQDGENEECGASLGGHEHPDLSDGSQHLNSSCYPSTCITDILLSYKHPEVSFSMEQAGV
PKBγ(h), sequence (Q9Y243 whole entry): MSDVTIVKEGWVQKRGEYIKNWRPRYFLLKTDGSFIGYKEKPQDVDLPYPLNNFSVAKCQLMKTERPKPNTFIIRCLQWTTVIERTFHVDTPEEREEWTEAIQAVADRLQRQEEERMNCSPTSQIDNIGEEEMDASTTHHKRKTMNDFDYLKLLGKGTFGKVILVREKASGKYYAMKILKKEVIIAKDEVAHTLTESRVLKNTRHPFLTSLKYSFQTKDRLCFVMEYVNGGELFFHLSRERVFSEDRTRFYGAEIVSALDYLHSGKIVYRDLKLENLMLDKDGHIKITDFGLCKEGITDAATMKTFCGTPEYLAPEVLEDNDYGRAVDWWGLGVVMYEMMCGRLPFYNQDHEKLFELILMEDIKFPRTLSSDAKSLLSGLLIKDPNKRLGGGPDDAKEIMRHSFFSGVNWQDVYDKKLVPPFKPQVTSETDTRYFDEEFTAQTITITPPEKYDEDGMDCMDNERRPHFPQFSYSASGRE

C[C@H](NC(=O)c1c[nH]c2ccc(-c3ccc4nc(NC(=O)C5CC5)sc4c3)cc12)c1cccc(F)c1 [Compound 34, (S)-5-(2-(cyclopropanecarboxamido)benzo[d]thiazol-6-yl)-N-(1-(3-fluorophenyl)ethyl)-1H-indole-3-carboxamide]
Inhibition ratio (MLK1(h)): 98% | Inhibition ratio (PKCζ(h)): 10% | Inhibition ratio (CK2α1(h)): 7% | Inhibition ratio [1]: 31% | Inhibition ratio (MAP4K3(h)): 95% | Inhibition ratio (MAPK2(m)): 12% | Inhibition ratio (PKCη(h)): −3% | Inhibition ratio (PASK(h)): −25% | Inhibition ratio (CSK(h)): 13% | Inhibition ratio (CaMKIIβ(h)): 21% | Inhibition ratio [2]: 24% | Inhibition ratio (CaMKI(h)): 5% | Inhibition ratio (WNK4(h)): 17% | Inhibition ratio (Plk3(h)): 9% | AUC(0-t) [3]: 4450 ng·h/mL | Cmax [3]: 852 ng/mL | Tmax [3]: 4 h | bioavailability [3]: 7.89% | half-life [3]: 2.06 h | Inhibition ratio (MRCKα(h)): 12% | Inhibition ratio (ICK(h)): 7% | Inhibition ratio (SAPK2b(h)): 12% | Inhibition ratio (SIK3(h)): 23% | Inhibition ratio (MEKK3(h)): 2% | Inhibition ratio (TrkC(h)): 104% | Inhibition ratio (PKBγ(h)): 11% | Inhibition ratio (PAK5(h)): −2% | Inhibition ratio (WNK3(h)): 18% | Inhibition ratio (ALK1(h)): 50% | Inhibition ratio (Rsk2(h)): 1% | Inhibition ratio (LRRK2(h)): 30%

C[C@H](NC(=O)c1cn(C)c2ccc(-c3ccn4nc(NC(=O)C5CC5)nc4c3)cc12)c1cccc(F)c1 [Compound 94, (S)-5-(2-(cyclopropanecarboxamido)-[1,2,4]triazolo[1,5-a]pyridin-7-yl)-N-(1-(3-fluorophenyl)ethyl)-1-methyl-1H-indole-3-carboxamide]
Inhibition ratio/% (MLK1(h)): 94% | Inhibition ratio/% (PKCζ(h)): −2% | Inhibition ratio/% (CK2α1(h)): 58% | Inhibition ratio/% [1]: 44% | Inhibition ratio/% (MAP4K3(h)): 28% | Inhibition ratio/% (MAPK2(m)): 33% | Inhibition ratio/% (PKCη(h)): 27% | Inhibition ratio/% (PASK(h)): 53% | Inhibition ratio/% (CSK(h)): 60% | Inhibition ratio/% (CaMKIIβ(h)): 78% | Inhibition ratio/% [2]: 32% | Inhibition ratio/% (CaMKI(h)): 49% | Inhibition ratio/% (WNK4(h)): 48% | Inhibition ratio/% (Plk3(h)): 12% | AUC(0-t) [3]: 1850 ng·h/mL | Cmax [3]: 330 ng/mL | Tmax [3]: 1.67 h | bioavailability [3]: 12.1% | half-life [3]: 7.02 h | Inhibition ratio/% (MRCKα(h)): −19% | Inhibition ratio/% (ICK(h)): 52% | Inhibition ratio/% (SAPK2b(h)): 36% | Inhibition ratio/% (SIK3(h)): 47% | Inhibition ratio/% (MEKK3(h)): 14% | Inhibition ratio/% (TrkC(h)): 28% | Inhibition ratio/% (PKBγ(h)): 31% | Inhibition ratio/% (PAK5(h)): 47% | Inhibition ratio/% (WNK3(h)): −20% | Inhibition ratio/% (ALK1(h)): 0% | Inhibition ratio/% (Rsk2(h)): 4% | Inhibition ratio/% (LRRK2(h)): 10%
